Data on one compound can be found in EP2999467B1, “USE OF A COMBINATION OF TWO COMPOUNDS FOR THE TREATMENT AND/OR PREVENTION OF BONE DISORDERS” (Institut National de la Recherche Agronomique (INRA), priority 2013, dated 2014).

The structures appear in SMILES notation. Read-outs that look alike come from different tables or passages of the source.

The subject of one assay is collagène de type 1. Kind of assay: Quantitative RT-PCR, osteoblast differentiation marker: type 1 collagen. The format is cell-based, rats Wistar. The following applies: Rattus norvegicus; for activation at 5 µM: AA+βGP+Fisétine 5µM. An excerpt: (§1) Les préostéoblastes primaires ont été isolés à partir de la calotte crânienne de rats Wistar nouveaux-nés par digestion enzymatique comme précédemment décrit [Declercq, H., Van den Vreken, N., De Maeyer, E., Verbeeck, R., Schacht, E., De Ridder, L., and Cornelissen, M. (2004). Isolation, proliferation and differentiation of osteoblastic cells to study cell/biomaterial interactions: comparison of different isolation techniques and source. Biomaterials 25, 757-68.]. Les précurseurs d'ostéoclastes RAW264.7 ont été obtenus auprès de l'ATCC (Manassas, VA, USA). Les préostéoblastes et les RAW264.7 ont été cultivés dans du milieu α-MEM (Invitrogen, Carlsbad, CA, USA) supplémenté avec 10% de SVF décomplémenté et de 100 unités/ml de pénicilline-streptomycine.
(§2) L'extraction des ARN totaux (cellules et fémurs) a été effectuée en utilisant le réactif TRIzol, la transcription inverse (RT) a été réalisée à l'aide du kit de synthèse d'ADNc Dynamo (Thermo Scientific, Waltham, MA, USA) et l'analyse PCR en temps réel a été réalisée avec le Mastercycler ep Realplex2 (Eppendorf, Hambourg, Allemagne). Toutes les valeurs ont été normalisées par la GAPDH. Les séquences des oligos utilisés sont : ALP F 5'-GGCCAGCTACACCACAACA-3' / ALP R 5'-[…] -3' / OCN F 5'-AGACTCCGGCGCTACCTT -3' / OCN R 5'-[…]-3'/ COL1 F 5'-[…]-3' / COL1 R 5'-[…]-3' / GAPDH F 5'-[…]-3' / GAPDH R 5'-[…]-3'

In the next assay the test system is ostéocalcine. Put plainly: Quantitative RT-PCR, osteoblast differentiation marker: osteocalcin. It is filed as cell-based, rats Wistar. The following applies: Rattus norvegicus; for activation at 5 µM: AA+βGP+Fisétine 5µM.
Excerpt: as §1, §2

The test system of a further assay is ostéocalcine sérique. Kind of assay: Ovariectomy-induced bone loss: serum osteocalcin (ELISA). The format is in vivo, souris C57BL/6J. The following applies: daily Fisétine 25mg/kg by gavage. The method, then:
Tout au long de l'étude, les animaux ont été logés dans un environnement contrôlé (12:12 h cycle lumière-obscurité, 20-22 ° C, 50-60% d'humidité relative, 1 souris par cage en plastique avec un accès libre à l'eau. Les souris C57BL/6J ont été livrées 2 semaines avant l'étude pour l'acclimatation à notre environnement sous régime standard semi-purifié. Pour toutes les expériences, les souris de 8 semaines (n=12/groupe) ont été gavées avec le véhicule (1% d'éthanol, 0,2% hydroxypropylcellulose dans de l'eau distillée) ou avec la fisétine (5 à 50 mg/kg dans le véhicule) pendant une semaine. Ensuite, pour l'expérience OVX, les souris ont été pseudo-opérées ou ovariectomisées bilatéralement et ont reçu quotidiennement par gavage le véhicule ou la fisétine pendant 4 semaines. A la fin de l'expérimentation, le sérum, les cornes utérines, les tibias et les fémurs ont été recueillis pour analyse. Pour l'expérience de perte osseuse induite par LPS, le véhicule (PBS) ou le LPS (sérotype 026: B6, 25mg/kg) ont été injectés par voie sous-cutanée au niveau de la calotte crânienne, une fois par semaine pendant 3 semaines sous anesthésie. Durant ces 3 semaines, les souris ont reçu soit le véhicule (1% d'éthanol, 0,2% hydroxypropylcellulose dans de l'eau distillée) soit la fisétine quotidiennement par gavage. […]

Regarding `O=c1c(O)c(-c2ccc(O)c(O)c2)oc2cc(O)ccc12` [Fisétine, 3,3',4',7-tétrahydroxyflavone], the activation at 1 µM in the assay with collagène de type 1 (168 h, AA+βGP+Fisétine 1 µM, J7, read-out: expression du collagène de type 1 par rapport à la condition « AA+βGP seuls ») was 34%; with collagène de type 1 (336 h, AA+βGP+Fisétine 1µM, J14, read-out: expression du collagène de type 1 par rapport à la condition « AA+βGP seuls ») it was 60%; in the assay with ostéocalcine (168 h, AA+βGP+Fisétine 1 µM, J7, read-out: expression de l'ostéocalcine par rapport à la condition « AA+βGP seuls »), 63%; with ostéocalcine (336 h, AA+βGP+Fisétine 1µM, J14, read-out: expression de l'ostéocalcine par rapport à la condition « AA+βGP seuls ») it was 63%. The activation at 5 µM is 80% in the assay with collagène de type 1 (168 h, J7, read-out: expression du collagène de type 1 par rapport à la condition « AA+βGP seuls »); 138% in the assay on collagène de type 1 (336 h, J14, read-out: expression du collagène de type 1 par rapport à la condition « AA+βGP seuls »); 177% with ostéocalcine (168 h, J7, read-out: expression de l'ostéocalcine par rapport à la condition « AA+βGP seuls »); 131% in the assay on ostéocalcine (336 h, J14, read-out: expression de l'ostéocalcine par rapport à la condition « AA+βGP seuls »). In the assay on ostéocalcine sérique, the “taux sérique d'ostéocalcine par rapport à la condition témoin « SH »” value is reported as “+61%”.
